From patent publication US8552028B2, “8-phenylisoquinolines and pharmaceutical composition used in treatment for sepsis” (National Taiwan University, priority 2011, dated 2013)

What was measured:
[1] = biological target: 5-HT2A receptor (Homo sapiens, UniProt P28223); experiment: 5-HT2A receptor binding affinity; conditions: for Ki: 5-HT2A receptor binding affinity; for 5-HT2A receptor binding affinity compared with sarpogrelate and ketanserin: comparison of Ki values, Table 8
Description: The 5-HT2A Receptor Binding Affinity of Compounds 116, 157 and 167.
The 5-HT2A receptor binding affinity data are represented by Ki values.

[2] = tested on: LPS induced endotoxaemia; experiment: Post-treatment of multiple doses on LPS induced endotoxaemia in mice model (survival); type: in vivo; conditions: for survival curve versus vehicle control group: Log rank test, p<0.01
Procedure: 12 hours after intraperitoneal injection of lipopolysaccharide (LPS) 100 mg/kg, compound 116 100 μg/kg or 300 μg/kg were administrated intraperitoneally or subcutaneously every 6 hour till 48 hours after LPS insults. […] Survival curves were compared by the Log rank test, and 3 days survival rate was compared by the chi square test.

[3] = tested on: 5-HT induced amplification of platelet aggregation; experiment: Collagen-elicited aggregation of rat platelet rich plasma, amplified by serotonin (Lumi-aggregometer); type: cell-based, Spraque-Dawley rats; conditions: rat PRP; for amplifying effects of serotonin on collagen induced platelet aggregation: collagen 3 μg/mL
Procedure: Blood samples were collected from male adult Spraque-Dawley rats, and platelet rich plasma (PRP) and platelet poor plasma (PPP) were obtained by centrifugation. Aggregation was elicited by adding collagen 3 μg/mL in PRP, and the aggregation response was recorded as the change of light transmission of PRP with Lumi-aggregometer. In FIG. 9a, collagen induced platelet aggregation, and the aggregation response was amplified by adding 10 μM serotonin in 30 seconds before adding collagen, as shown in FIG. 9b.

[4] = tested on: rat de-endothelial thoracic descending aorta; experiment: Serotonin induced rat thoracic aorta contraction (organ bath); parameters: species or system Sprague Dawley rats; conditions: 0.03 or 0.1 μM in organ bath; cumulative serotonin 30 nM-0.1 mM; FIG. 10
Procedure: Thoracic aortae were obtained from adult male Sprague Dawley rats. The aortae were cleared of adhering periadventitial fat and cut into strips 3-4 mm in length. […] The tissue was incubated with warmed (37° C.), oxygenated (95% O2/5% CO2) Krebs-Henseleit solution (KBS, pH7.4) consisting of NaCl 118.2 mM, KCl 4.7 mM, KH2PO4 1.2 mM, MgSO4 1.2 mM, CaCl2·2H2O 1.9 mM, NaHCO3 25 mM and glucose 11.7 mM. Indomethacin (10 μM) was added to prevent the production of prostanoids. One end of the segment was fixed to the organ bath chamber, and the other to a force transducer (Type BG 25; Gould, Oxnard, Calif., USA) in which tension is recorded (model RS 3400 recorder, Gould). The preparations were allowed to equilibrate for at least 60 min under a passive tension of 1.5±0.2 g. Cumulative responses to serotonin (30 nM-0.1 mM) were examined for 20 min after addition of 0.03 or 0.1 μM compound 116 to the organ bath. Contraction responses were expressed as the percentage of maximum contraction.

Chain of 5-HT2A receptor (P28223 whole entry): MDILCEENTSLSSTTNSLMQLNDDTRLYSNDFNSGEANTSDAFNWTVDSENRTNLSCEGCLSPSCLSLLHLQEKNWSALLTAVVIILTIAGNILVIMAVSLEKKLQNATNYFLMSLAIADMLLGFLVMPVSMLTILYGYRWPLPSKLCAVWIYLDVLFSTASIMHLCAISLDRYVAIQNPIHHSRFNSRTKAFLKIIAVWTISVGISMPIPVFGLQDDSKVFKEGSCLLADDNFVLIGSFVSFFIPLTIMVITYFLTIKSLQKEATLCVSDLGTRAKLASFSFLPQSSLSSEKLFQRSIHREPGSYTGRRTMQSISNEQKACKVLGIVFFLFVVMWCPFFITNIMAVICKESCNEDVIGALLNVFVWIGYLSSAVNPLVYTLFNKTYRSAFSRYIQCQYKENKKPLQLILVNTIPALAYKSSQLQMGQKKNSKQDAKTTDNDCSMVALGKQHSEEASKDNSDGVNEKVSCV

SMILES | Ki [1] [nM] | 5-HT2A receptor binding affinity compared with sarpogrelate and ketanserin [1] | also measured
COc1ccc(-c2c(O)c(OC)cc3c2CN(CCc2ccccc2F)CC3)c(OC)c1 [Compound 116] | 3.47 | higher than those of the well-known 5-HT2A receptor antagonists | survival curve versus vehicle control group ([2]; 100 μg/kg i.p. or s.c. every 6 hour from 12 h till 48 hours after LPS 100 mg/kg i.p.): shifted the survive curve rightward significantly; survival curve versus vehicle control group ([2]; 300 μg/kg i.p. or s.c. every 6 hour from 12 h till 48 hours after LPS 100 mg/kg i.p.): shifted the survive curve rightward significantly; amplifying effects of serotonin on collagen induced platelet aggregation ([3]; 3 μg/mL added 30 seconds before 10 μM serotonin): blocked; platelet activation ([3]; FIGS. 9a-9d): Did not Exert Platelet Activation; serotonin induced smooth muscle contraction [4]: inhibits serotonin induced smooth muscle contraction in a dose dependent manner
COc1cc2c(c(-c3ccccc3F)c1OC)CN(CCc1ccccc1Cl)CC2 [Compound 167] | 0.119 | higher than those of the well-known 5-HT2A receptor antagonists | effect of post-treatment of multiple doses on LPS induced endotoxaemia ([2]; same method as for compound 116, FIG. 8): Protective Effects
O=C(c1ccc(F)cc1)C1CCN(CCn2c(=O)[nH]c3ccccc3c2=O)CC1 [ketanserin, reference compound] |  |  | amplifying effects of serotonin on collagen induced platelet aggregation ([3]; 10 μM added 30 seconds before 10 μM serotonin): blocked

Continued, in another order:

Ki [1] [nM] | SMILES | 5-HT2A receptor binding affinity compared with sarpogrelate and ketanserin [1] | also measured
2.21 | COc1cc2c(c(-c3ccccc3F)c1OC)CN(CCc1ccccc1)CC2 [Compound 157] | higher than those of the well-known 5-HT2A receptor antagonists | 
8.39 | COc1cccc(CCc2ccccc2OCC(CN(C)C)OC(=O)CCC(=O)O)c1 (centres unmarked) [sarpogrelate, reference compound] |  | 
